In patent US20230276792A1, “SELECTIVE HERBICIDES BASED ON SUBSTITUTED ISOXAZOLIN CARBOXAMIDES AND CLOQUINTOCET-MEXYL” (Bayer Aktiengesellschaft, priority 2020, published 2023):

Legend:
Format in all cases: in vivo
[1] = tested on: spring barley, HORVS Montoya; experiment: Safener seed treatment, pre-emergence herbicide application, crop damage; settings: 21 (Final) DAT; HER dose 15 g a.i./ha; cloquintocet-mexyl 0.25 g a.i./kg seed
Experimental: (§1) For the safener seed treatment, sufficient seeds of the respective crops (spring wheat, TRZAS; spring barley, HORVS; maize, ZEAMA) were weighed into screw top glass bottles approximately twice the volume of the seeds.
(§2) The specified safeners, formulated as wettable powder (WP) were weighed out so that the specified rates (g a.i./kg seed) would be obtained, dissolved in water (1 ml water per 10 g of seeds), and added to the seeds to produce a slurry.
(§3) The bottles were capped and then placed in an overhead shaker (set at medium speed for ca. 60 minutes) so that the seeds were evenly coated with the slurry. The bottles were uncapped and the seeds were either placed on paper and dried for an interval of 3-4 hours prior to sowing, or directly sown. Seeds were placed in sandy loam soil in pots of a diameter of 7-8 cm, and covered with soil.
Pre-emergence application of the specified herbicides was done subsequently, on two sets of plants: • a) seed treatment with safener, as described above • b) no safener treatment […]
After application, the test plants were kept in the greenhouse under good growth conditions. At intervals up to 4 weeks after application (=28 days after treatment; DAT), % crop damage observed on the treated plants was scored visually in comparison to control plants that had not received any safener or herbicide treatment. […]

[2] = tested on: spring wheat, TRZAS Triso; experiment: as above; settings: cloquintocet-mexyl 0.25 g a.i./kg seed
Experimental: as §1, §2, §3
Pre-emergence application of the specified herbicides was done subsequently, on two sets of plants: • a) seed treatment with safener, as described above • b) no safener treatment
The herbicides were formulated as WP and was sprayed onto the soil surface as an aqueous suspension at an equivalent water application rate of 300 l/ha.
After application, the test plants were kept in the greenhouse under good growth conditions. At intervals up to 4 weeks after application (=28 days after treatment; DAT), % crop damage observed on the treated plants was scored visually in comparison to control plants that had not received any safener or herbicide treatment.
Values in the table below are mean values of at least 2 replicates.
(§4) Reduction [Difference]=herbicide damage without safener−herbicide damage with safener
(§5) Reduction [%]=(Reduction [Difference]*100)/herbicide damage without safener
a) Plant Species, Variety: TRZAS Triso, Safener (SAF): Cloquintocet-Mexyl

[3] = tested on: spring wheat, TRZAS Triso; experiment: Safener seed treatment, post-emergence herbicide application, crop damage; settings: for HER effect + SAF [%]: cloquintocet-mexyl 0, 5 g a.i./kg seed; for HER effect [%]: without safener
From the text: (§6) For safener seed treatment trials, sufficient seed amounts of the respective crops (spring wheat (TRZAS); spring barley (HORVS)) were weighed into screw cap glass bottles with a minimum volume trice of the seeds.
(§7) As a first step, specified safeners formulated as wettable powder (WP) or wettable granules (WG) were weighed out for the required dosages (g a.i./kg seed), corresponding to the seed amounts. The safener amounts were mixed with a coloured slurry blind formulation type, pre-diluted with milk at 3.5% fat rate (25 mgs slurry formulation plus 2 ml milk per 10 grams of seed). A tube roller was used for coating. The solutions were gradually pipetted each on the rotating seeds followed by coating for min. 3 hours until all liquid had been soaked up by the seeds. Thereafter, the coated seeds were put flat on open trays for drying over night at room temperature.
(§8) Treated seeds were then placed into pots (7 cm diameter) on the surface of sandy loam, pressed down, flat covered with additional soil and finally covered with sandy soil, also pressed down, watered, and kept under good growth conditions in a greenhouse, until the plants had reached 2-leaf-stage (BBCH 12).
(§9) At that stage, post-emergence application of the specified herbicides was done on: • a) pot sets containing plants with safener-coated seeds as described above, • b) as a reference, pot sets of plants without seed treatment.
(§10) The herbicides were formulated as wettable powder (WP). Equivalent to the spray area, compound amounts were weighed out and diluted related to the water application rate (300 l/ha) to an aqueous suspension plus additive (1 l/ha MERO). Dosage related equivalents were conventionally sprayed on trays with the potted plants.
(§11) After application, the test plants were kept under good growth conditions in a greenhouse. Assessment timings were 10 and 21 days after treatment (DAT) with the herbicide, by visual scoring of the crop damage in % (comparison of untreated with treated plants, either sprayed only with herbicide or with herbicide on plants with treated seeds).
as §4, §5
(§12) b) Plant Species, Variety: TRZAS Triso, Safener (SAF): Cloquintocet-Mexyl

[4] = tested on: spring barley, HORVS Montoya; experiment: as above; settings: 10 DAT; HER dose 8 g a.i./ha; cloquintocet-mexyl 0, 5 g a.i./kg seed
From the text: as §6, §7, §8, §9, §10, §11, §4, §5
(§13) a) Plant Species, Variety: HORVS Montoya, Safener (SAF): Cloquintocet-Mexyl

[5] = tested on: spring barley, HORVS Montoya; experiment: Tank-mix post-emergence crop damage, herbicide with and without safener cloquintocet-mexyl, greenhouse; settings: 10 DAT; HER dose 8 g a.i./ha; cloquintocet-mexyl 100 g a.i./ha
Experimental: (§14) Seeds of crops (spring wheat, TRZAS; spring barley, HORVS; maize, ZEAMA) were placed in sandy loam soil in peat pots, covered with soil and cultivated in a greenhouse under good growth conditions. Two to three weeks after sowing, the test plants were treated at the 1 to 3-leaf stage. The herbicide/safener active compound combinations according to the invention, formulated as wettable powders or emulsion concentrates, and, in parallel tests, the correspondingly formulated individual active compounds were sprayed onto the green parts of the plants in various dosages using an amount of water of 300 l/ha (converted).
(§15) The pots were returned under good growing conditions in a glasshouse and a visual assessment of herbicidal effects was made at intervals from 1 to 3 weeks after herbicide application (DAT=days after treatment). Assessment was on a percentage basis in comparison with untreated control plants (0%=no injury, 100%=complete kill).
as §4, §5, §13

[6] = tested on: spring wheat, TRZAS Triso; experiment: as above; settings: 10 DAT; HER dose 8 g a.i./ha; cloquintocet-mexyl 50 g a.i./ha
Experimental: as §14, §15, §4, §5, §12

[7] = 11 (Interim) DAT, HER dose 15 g a.i./ha
[8] = 21 (Final) DAT, HER dose 15 g a.i./ha

Row | Compound | Reduction [Difference] [1] | Reduction [Difference] ([2]; 11 (Interim) DAT, HER dose 5 g a.i./ha) | Reduction [%] [2, 7] [%] | Reduction [Difference] [2, 7] | Reduction [Difference] ([2]; 21 (Final) DAT, HER dose 5 g a.i./ha) | Reduction [%] [2, 8] [%] | Reduction [Difference] [2, 8] | HER effect + SAF [%] ([3]; 21 DAT, HER dose 1 g a.i./ha) | HER effect [%] ([3]; 21 DAT, HER dose 1 g a.i./ha) | HER effect + SAF [%] ([3]; 21 DAT, HER dose 4 g a.i./ha) | HER effect [%] ([3]; 21 DAT, HER dose 4 g a.i./ha) | HER effect + SAF [4] [%] | HER effect + SAF [5] [%] | HER effect + SAF [%] ([3]; 10 DAT, HER dose 8 g a.i./ha) | HER effect [%] ([3]; 10 DAT, HER dose 8 g a.i./ha) | HER effect + SAF [%] ([3]; 10 DAT, HER dose 32 g a.i./ha) | HER effect [%] ([3]; 10 DAT, HER dose 32 g a.i./ha) | HER effect + SAF [6] [%] | Reduction [%] [6] [%]
1 | C=CC1(C(=O)NC2COC(C(=O)OC)C2)CC(c2cc(F)cc(F)c2)=NO1 (mixture of isomers) [Example 1.68] | 80 | 45 | 88 | 70 | 45 | 94 | 80 | 20 | 80 | 30 | 85 |  |  |  |  |  |  |  | 
2 | COCCOC(=O)C1C=CC(NC(=O)C2(C(F)(F)F)CC(c3cc(F)cc(C#N)c3)=NO2)C1 (stereo not shown) [Example 1.2] |  |  |  |  |  |  |  |  |  |  |  | 10 | 10 | 0 | 90 | 10 | 90 | 70 | 22
